Reference: patent US20250353820A1, “ANTIVIRAL PYRAZOLOPYRIDINONE COMPOUNDS” (Novartis AG, priority 2019, published 2025)

What follows are compounds tested against human HSV DNA polymerase UL30 (Human herpesvirus 1 (strain 17) (HHV-1) (Human herpes simplex virus 1), UniProt P04293) (assay: biochemical). Details: 625 pM HSV polymerase, 20 minutes at room temperature; read-out: HSV-polymerase Biochemical IC50.
Cn1nc(C(=O)NCc2ccc(Cl)cc2)c2c1C(=O)N(CC1(S(=O)(=O)N3CC(O)C3)CC1)CC2 [Example 150, N-(4-Chlorobenzyl)-6-((1-((3-hydroxyazetidin-1-yl)sulfonyl)cyclopropyl)methyl)-1-methyl-7-oxo-4,5,6,7-tetrahydro-1H-pyrazolo[3,4-c]pyridine-3-carboxamide] was tested, and the IC50 was 0.081 µM.
CNS(=O)(=O)C1(CN2CCc3c(C(=O)NCc4ccc(Cl)cc4)nn(C)c3C2=O)CC1 [Example 151, N-(4-Chlorobenzyl)-1-methyl-6-((1-(N-methylsulfamoyl)cyclopropyl)methyl)-7-oxo-4,5,6,7-tetrahydro-1H-pyrazolo[3,4-c]pyridine-3-carboxamide] gave an IC50 of 0.118 µM.
Compound Cn1nc(C(=O)NCc2ccc(Cl)cc2)c2c1C(=O)N(CC1(S(=O)(=O)NCC(C)(C)O)CC1)CC2 [Example 152, N-(4-Chlorobenzyl)-6-((1-(N-(2-hydroxy-2-methylpropyl)sulfamoyl)cyclopropyl)methyl)-1-methyl-7-oxo-4,5,6,7-tetrahydro-1H-pyrazolo[3,4-c]pyridine-3-carboxamide] has an IC50 of 0.827 µM.
Cn1nc(C(=O)NCc2ccc(Cl)cc2)c2c1C(=O)N(CC1(S(=O)(=O)NC(C)(CO)CO)CC1)CC2 [Example 153, N-(4-Chlorobenzyl)-6-((1-(N-(1,3-dihydroxy-2-methylpropan-2-yl)sulfamoyl)cyclopropyl)methyl)-1-methyl-7-oxo-4,5,6,7-tetrahydro-1H-pyrazolo[3,4-c]pyridine-3-carboxamide] was tested, and the IC50 was 0.292 µM.
Compound Cn1nc(C(=O)NCc2ccc(C#N)cc2)c2c1C(=O)N(CC1(S(=O)(=O)Nc3ccccn3)CC1)CC2 [Example 155, N-(4-Cyanobenzyl)-1-methyl-7-oxo-6-((1-(N-(pyridin-2-yl)sulfamoyl)cyclopropyl)methyl)-4,5,6,7-tetrahydro-1H-pyrazolo[3,4-c]pyridine-3-carboxamide] has an IC50 of 0.078 µM.
In the case of Cn1ccc(NS(=O)(=O)C2(CN3CCc4c(C(=O)NCc5ccc(C#N)cc5)nn(C)c4C3=O)CC2)n1 [Example 156], the IC50 is reported as 0.062 µM.
With Cc1cccc(NS(=O)(=O)C2(CN3CCc4c(C(=O)NCc5ccc(C#N)cc5)nn(C)c4C3=O)CC2)n1 [Example 157] the IC50 was 0.046 µM.
Cn1nc(C(=O)NCc2ccc(Cl)cc2)c2c1C(=O)N(CC1(S(=O)(=O)Nc3ccccn3)CC1)CC2 [Example 158] was tested, and the IC50 was 0.058 µM.
With COc1cccnc1NS(=O)(=O)C1(CN2CCc3c(C(=O)NCc4ccc(C#N)cc4)nn(C)c3C2=O)CC1 [Example 159] the IC50 was 0.423 µM.
COc1ccc(C)nc1NS(=O)(=O)C1(CN2CCc3c(C(=O)NCc4ccc(C#N)cc4)nn(C)c3C2=O)CC1 [Example 160] showed an IC50 of 0.301 µM.
For Cc1ncccc1NS(=O)(=O)C1(CN2CCc3c(C(=O)NCc4ccc(C#N)cc4)nn(C)c3C2=O)CC1 [Example 161], the IC50 was 0.04 µM.
For COc1ncccc1NS(=O)(=O)C1(CN2CCc3c(C(=O)NCc4ccc(C#N)cc4)nn(C)c3C2=O)CC1 [Example 162], the IC50 was 0.018 µM.
In the case of COc1cccc(NS(=O)(=O)C2(CN3CCc4c(C(=O)NCc5ccc(C#N)cc5)nn(C)c4C3=O)CC2)n1 [Example 163], the IC50 is reported as 0.036 µM.
With Cc1cccnc1NS(=O)(=O)C1(CN2CCc3c(C(=O)NCc4ccc(C#N)cc4)nn(C)c3C2=O)CC1 [Example 164] the IC50 was 0.185 µM.
In the case of Cc1cc(NS(=O)(=O)C2(CN3CCc4c(C(=O)NCc5ccc(Cl)cc5)nn(C)c4C3=O)CC2)no1 [Example 166], the IC50 is reported as 0.012 µM.
Cn1nc(C(=O)NCc2ccc(C#N)cc2)c2c1C(=O)N(CC1(S(=O)(=O)Nc3cc(C4CC4)on3)CC1)CC2 [Example 167] gave an IC50 of 0.104 µM.
Cn1nc(C(=O)NCc2ccc(C#N)cc2)c2c1C(=O)N(CC1(S(=O)(=O)C3CCOCC3)CC1)CC2 [Example 169] was tested, and the IC50 was 0.238 µM.
In the case of Cn1nc(C(=O)NCc2ccc(C#N)cc2)c2c1C(=O)N(CC1(S(=O)(=O)C3(C)COC3)CC1)CC2 [Example 172, N-(4-Cyanobenzyl)-1-methyl-6-((1-((3-methyloxetan-3-yl)sulfonyl)cyclopropyl)methyl)-7-oxo-4,5,6,7-tetrahydro-1H-pyrazolo[3,4-c]pyridine-3-carboxamide], the IC50 is reported as 0.063 µM.
